Like-named read-outs stand apart in the source and are kept apart here.
How the values were obtained:
[1] = molecular target: T1, cyclin E/CDK2 enzyme (Homo sapiens, UniProt P24941); experiment: CDK2 ELISA kinase assay (phospho-Rb ser 795 detection); assay type: biochemical
T1 construct: made in house; host or cells: Sf9 insect cells, recombinant baculovirus
Method in brief: (§1)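 Inhibition was derived from A450 relative to control wells lacking compound, following an anti-phospho-Rb Ser795 sandwich of HRP detection. The reactions combined coated GST-Rb fragment, 200 μM ATP and baculovirus-expressed cyclin/CDK enzymes, incubated for 1 h at 30° C.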

[2] = test system: MCF-7; experiment: Cytotoxicity assay (SRB), MCF-7; assay type: cell-based; conditions: Homo sapiens, MCF7, 72 h, MCF-7 cells, SRB, read-out: In Vitro Cellular Activity IC50 MCF-7
Method in brief: (§2)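 Cells were seeded overnight in RPMI 1640 with 5% FBS at 37 °C, 7% CO2 (12000/well BT474, 4000 HCT-116, 6000 LoVo, 6000 MCF-7), then exposed to compound dilutions for 3 days (6 days for BT474). Survival versus untreated controls was measured by TCA fixation and SRB staining at 540 nm.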

[3] = test system: BT474; experiment: Cytotoxicity assay (SRB), BT474; assay type: cell-based
Method in brief: as §2

[4] = molecular target: T2, cyclin B/CDK1 enzyme (Homo sapiens, UniProt P06493); experiment: CDK1 ELISA kinase assay (phospho-Rb ser 795 detection); assay type: biochemical
T2 construct: purchased New England BioLabs; host or cells: Sf9 insect cells, recombinant baculovirus
T2 sequence (P06493 whole entry): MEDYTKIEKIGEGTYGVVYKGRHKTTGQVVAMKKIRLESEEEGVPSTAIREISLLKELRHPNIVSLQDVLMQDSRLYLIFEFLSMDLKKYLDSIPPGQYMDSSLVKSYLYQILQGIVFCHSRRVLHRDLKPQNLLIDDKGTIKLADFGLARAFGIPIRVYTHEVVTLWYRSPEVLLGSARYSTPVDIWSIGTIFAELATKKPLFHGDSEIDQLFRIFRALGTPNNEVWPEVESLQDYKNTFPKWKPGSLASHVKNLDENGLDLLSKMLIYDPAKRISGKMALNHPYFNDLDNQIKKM
T2 sequence (P14635 whole entry partner): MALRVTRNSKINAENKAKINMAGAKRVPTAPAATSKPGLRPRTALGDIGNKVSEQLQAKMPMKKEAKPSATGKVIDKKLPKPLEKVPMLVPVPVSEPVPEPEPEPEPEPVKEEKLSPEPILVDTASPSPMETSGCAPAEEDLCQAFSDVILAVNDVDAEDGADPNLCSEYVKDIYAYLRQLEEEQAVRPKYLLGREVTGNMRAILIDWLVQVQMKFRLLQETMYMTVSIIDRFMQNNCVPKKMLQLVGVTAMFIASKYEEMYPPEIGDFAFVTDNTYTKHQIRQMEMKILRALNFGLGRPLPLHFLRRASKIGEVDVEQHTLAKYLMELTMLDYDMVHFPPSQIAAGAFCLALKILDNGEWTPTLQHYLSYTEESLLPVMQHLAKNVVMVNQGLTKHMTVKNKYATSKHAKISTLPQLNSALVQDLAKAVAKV
Method in brief: as §1

[5] = test system: LoVo; experiment: Cytotoxicity assay (SRB), LoVo; assay type: cell-based; conditions: Homo sapiens, LoVo, 72 h, LoVo cells, SRB, read-out: In Vitro Cellular Activity IC50 LOVO
Method in brief: as §2

[6] = molecular target: T3, cyclin D1/cdk 4 enzyme (Homo sapiens, UniProt P11802); experiment: CDK4 ELISA kinase assay (phospho-Rb ser 795 detection); assay type: biochemical
T3 construct: made in house; host or cells: Sf9 insect cells, recombinant baculovirus
T3 sequence (P11802 whole entry, species assumed): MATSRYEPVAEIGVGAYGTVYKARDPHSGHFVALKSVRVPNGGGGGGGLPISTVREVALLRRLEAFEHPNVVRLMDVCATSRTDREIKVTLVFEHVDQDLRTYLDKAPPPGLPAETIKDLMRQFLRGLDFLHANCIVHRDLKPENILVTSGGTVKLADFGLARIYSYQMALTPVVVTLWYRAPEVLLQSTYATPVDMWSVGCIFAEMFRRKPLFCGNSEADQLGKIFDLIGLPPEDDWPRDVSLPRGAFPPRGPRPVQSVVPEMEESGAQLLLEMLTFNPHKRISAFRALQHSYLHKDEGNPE
T3 sequence (P24385 whole entry partner, species assumed): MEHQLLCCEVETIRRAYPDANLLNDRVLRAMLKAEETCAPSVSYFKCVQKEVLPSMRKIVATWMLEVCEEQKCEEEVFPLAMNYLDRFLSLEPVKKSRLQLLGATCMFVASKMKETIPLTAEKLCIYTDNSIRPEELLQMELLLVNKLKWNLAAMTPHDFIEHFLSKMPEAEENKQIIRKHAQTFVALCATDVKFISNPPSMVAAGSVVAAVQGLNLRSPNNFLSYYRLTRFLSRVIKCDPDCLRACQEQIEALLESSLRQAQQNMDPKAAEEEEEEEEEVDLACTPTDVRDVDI
Method in brief: as §1

[7] = test system: HCT-116; experiment: Cytotoxicity assay (SRB), HCT-116; assay type: cell-based; conditions: Homo sapiens, HCT-116, 72 h, HCT116 cells, SRB, read-out: In Vitro Cellular Activity IC50 HCT116
Method in brief: as §2

[8] = In Vitro Enzyme Assay, cyclin E/CDK2, read-out: CDK2 IC50
[9] = Homo sapiens, BT-474, 144 h, BT474 cells, 6 days, SRB; read-out: In Vitro Cellular Activity IC50 BT474
[10] = In Vitro Enzyme Assay, cyclin B/CDK1, read-out: CDK1 IC50
[11] = In Vitro Enzyme Assay, cyclin D1/cdk 4, read-out: CDK4 IC50
[12] = In Vitro Enzyme Assays, read-out: CDK2 IC50
[13] = Homo sapiens, BT-474, 144 h, BT474 cells, SRB, 6 days; read-out: In Vitro Cellular Activity IC50 BT474
[14] = In Vitro Enzyme Assays, read-out: CDK1 IC50
[15] = In Vitro Enzyme Assays, 200 μM ATP, read-out: CDK4 IC50

## O=C1NC(=O)c2ccc(N(CCC(F)(F)F)CCC(F)(F)F)cc2C1=CNCc1ccc(O)c(O)c1 [Example 611, 6-[Bis-(3,3,3-trifluoro-propyl)-amino]-4-[(3,4-dihydroxy-benzylamino)-methylene]-4H-isoquinoline-1,3-dione]
[1]; [8]
  IC50: 18.1 µM
[2]; 3 days
  IC50: 13.2 µM
[3]; [9]
  IC50: 23.6 µM
[4]; [10]
  IC50: 18.1 µM
[5]; 3 days
  IC50: 16.1 µM
[6]; [11]
  IC50: 12.9 µM
[7]; 3 days
  IC50: 14.1 µM

## CCOc1ccc(CN/C=C2\C(=O)NC(=O)c3ccc(Br)cc32)cc1O [Example 166, (4Z)-6-Bromo-4-{[(4-ethoxy-3-hydroxybenzyl)amino]methylene}isoquinoline-1,3(2H,4H)-dione]
[1]; [12]
  IC50: 45.5 µM
[2]; three days
  IC50: 19 µM
[3]; [13]
  IC50: 1.4 µM
[4]; [14]
  IC50: > 50 µM
[5]; three days
  IC50: 2.2 µM
[6]; [15]
  IC50: 0.03 µM
[7]; three days
  IC50: 1.3 µM

## CC(C)N1CCN(c2ccc(N/C=C3\C(=O)NC(=O)c4ccc(I)cc43)cc2)CC1 [Example 386, (4Z)-6-Iodo-4-({[4-(4-isopropylpiperazin-1-yl)phenyl]amino}methylene)isoquinoline-1,3(2H,4H)-dione]
[1]; [12]
  IC50: > 50 µM
[2]; three days
  IC50: 2.2 µM
[3]; [13]
  IC50: 7 µM
[4]; [14]
  IC50: > 50 µM
[5]; three days
  IC50: 6.5 µM
[6]; [15]
  IC50: 0.6 µM
[7]; three days
  IC50: 2.6 µM

## CC(=O)Oc1cc(CN/C=C2\C(=O)NC(=O)c3ccc(Br)cc32)cc2c1OC(C)(C)O2 [Example 268, 6-({[(Z)-(6-Bromo-1,3-dioxo-2,3-dihydroisoquinolin-4(1H)-ylidene)methyl]amino}methyl)-2,2-dimethyl-1,3-benzodioxol-4-yl acetate]
[1]; [12]
  IC50: 23.6 µM
[2]; three days
  IC50: 35 µM
[3]; [13]
  IC50: > 50 µM
[4]; [14]
  IC50: 1.2 µM
[5]; three days
  IC50: 47 µM
[6]; [15]
  IC50: 34.7 µM
[7]; three days
  IC50: 29 µM

## CN(C)CCOc1ccc(N/C=C2\C(=O)NC(=O)c3ccc(Br)cc32)cc1 [Example 867, (4Z)-6-Bromo-4-[({4-[2-(dimethylamino)ethoxy]phenyl}amino)methylene]isoquinoline-1,3(2H,4H)-dione]
[1]; In Vitro Enzyme Assay, read-out: CDK2 IC50
  IC50: > 50 µM
[2]; 3 days
  IC50: 6.7 µM
[3]; [9]
  IC50: 8.3 µM
[4]; In Vitro Enzyme Assay, read-out: CDK1 IC50
  IC50: > 50 µM
[5]; 3 days
  IC50: 5.3 µM
[6]; In Vitro Enzyme Assay, read-out: CDK4 IC50
  IC50: 0.48 µM
[7]; 3 days
  IC50: 3.5 µM

## CC(CO)N1CCN(c2ccc(N/C=C3\C(=O)NC(=O)c4ccc(I)cc43)cc2)CC1 (stereo not drawn) [Example 398, (4Z)-4-[({4-[4-(2-Hydroxy-1-methylethyl)piperazin-1-yl]phenyl}amino)methylene]-6-iodoisoquinoline-1,3(2H,4H)-dione]
[1]; [12]
  IC50: > 50 µM
[2]; 3 days
  IC50: 4.4 µM
[3]; [9]
  IC50: 6.19 µM
[4]; [14]
  IC50: 21.6 µM
[5]; 3 days
  IC50: 6.3 µM
[6]; [15]
  IC50: 0.18 µM
[7]; 3 days
  IC50: 2.3 µM

## O=C1NC(=O)c2ccc(-c3ccoc3)cc2/C1=C/Nc1ccc(CN2CCC[C@H]2CO)cc1 [Example 463, 6-Furan-3-yl-4-{[4-(2-hydroxymethyl-pyrrolidin-1-ylmethyl)-phenylamino]-methylene}-4H-isoquinoline-1,3-dione]
[1]; [8]
  IC50: > 50 µM
[2]; 3 days
  IC50: 0.9 µM
[3]; [9]
  IC50: 1.7 µM
[4]; [10]
  IC50: > 50 µM
[5]; 3 days
  IC50: 2 µM
[6]; [11]
  IC50: 0.06 µM
[7]; 3 days
  IC50: 2.3 µM

## COc1ccc(CNC=C2C(=O)NC(=O)c3ccc(C=Cc4ccccn4)cc32)cc1O [Example 735, 4-[(3-Hydroxy-4-methoxy-benzylamino)-methylene]-6-(2-pyridin-2-yl-vinyl)-4H-isoquinoline-1,3-dione]
[1]; [8]
  IC50: > 50 µM
[2]; 3 days
  IC50: 21.9 µM
[3]; [9]
  IC50: 20.1 µM
[4]; [10]
  IC50: > 50 µM
[5]; 3 days
  IC50: 11.4 µM
[6]; [11]
  IC50: 0.14 µM
[7]; 3 days
  IC50: 18.2 µM

## CN(C)Cc1cccc(-c2ccc(CN/C=C3\C(=O)NC(=O)c4ccc(I)cc43)cc2O)c1 [Example 519, 4-{[(3′-Dimethylaminomethyl-2-hydroxy-biphenyl-4-ylmethyl)-amino]-methylene}-6-iodo-4H-isoquinoline-1,3-dione]
[1]; [8]
  IC50: 6.5 µM
[2]; 3 days
  IC50: 1 µM
[3]; [9]
  IC50: 2.2 µM
[4]; [10]
  IC50: 17.3 µM
[5]; 3 days
  IC50: 1.4 µM
[6]; [11]
  IC50: 0.01 µM
[7]; 3 days
  IC50: 0.82 µM

## O=C1NC(=O)c2ccc(-c3nccs3)cc2/C1=C/Nc1ccc(CN2CCC[C@H]2CO)cc1 [Example 472, 4-{[4-(2-Hydroxymethyl-pyrrolidin-1-ylmethyl)-phenylamino]-methylene}-6-thiazol-2-yl-4H-isoquinoline-1,3-dione]
[1]; [8]
  IC50: > 50 µM
[2]; 3 days
  IC50: 14.2 µM
[3]; [9]
  IC50: 9.1 µM
[4]; [10]
  IC50: > 50 µM
[5]; 3 days
  IC50: 8.9 µM
[6]; [11]
  IC50: 0.6 µM
[7]; 3 days
  IC50: 5 µM

## CN1CCN(c2ccc(N/C=C3\C(=O)NC(=O)c4ccc(-c5ccoc5)cc43)cc2)CC1 [Example 236, (4Z)-6-(3-Furyl)-4-({[4-(4-methylpiperazin-1-yl)phenyl]amino}methylene)isoquinoline-1,3(2H,4H)-dione]
[1]; [12]
  IC50: > 50 µM
[2]; three days
  IC50: 1.1 µM
[3]; [13]
  IC50: 1 µM
[4]; [14]
  IC50: > 50 µM
[5]; three days
  IC50: 2.2 µM
[6]; [15]
  IC50: 0.22 µM
[7]; three days
  IC50: 1.2 µM

## COc1ccccc1-c1ccc2c(c1)C(=CNCc1ccc(O)c(O)c1)C(=O)NC2=O [Example 766, 4-[(3,4-Dihydroxy-benzylamino)-methylene]-6-(2-methoxy-phenyl)-4H-isoquinoline-1,3-dione]
[1]; [8]
  IC50: 14.4 µM
[2]; 3 days
  IC50: 22.1 µM
[3]; [9]
  IC50: 33.9 µM
[4]; [10]
  IC50: 43.4 µM
[5]; 3 days
  IC50: 32.3 µM
[6]; [11]
  IC50: 1.29 µM
[7]; 3 days
  IC50: 21.6 µM

## COc1ccc(-c2ccc3c(c2)C(=CNCc2ccc(O)c(O)c2)C(=O)NC3=O)cc1OC [Example 813, 4-[(3,4-Dihydroxy-benzylamino)-methylene]-6-(3,4-dimethoxy-phenyl)-4H-isoquinoline-1,3-dione]
[1]; [8]
  IC50: 33.1 µM
[2]; 3 days
  IC50: 29.7 µM
[3]; [9]
  IC50: 35.8 µM
[4]; [10]
  IC50: > 50 µM
[5]; 3 days
  IC50: 12.7 µM
[6]; [11]
  IC50: 0.31 µM
[7]; 3 days
  IC50: 19.8 µM

## CN1CCN(c2ccc(N/C=C3\C(=O)NC(=O)c4ccc(I)cc43)c(O)n2)CC1 [Example 447, (4Z)-4-({[2-Hydroxy-6-(4-methylpiperazin-1-yl)pyridin-3-yl]amino}methylene)-6-iodoisoquinoline-1,3(2H,4H)-dione]
[1]; [12]
  IC50: 17.6 µM
[2]; 3 days
  IC50: 3.6 µM
[3]; [9]
  IC50: 3 µM
[4]; [14]
  IC50: 12.9 µM
[5]; 3 days
  IC50: 3.5 µM
[6]; [15]
  IC50: 7.5 µM
[7]; 3 days
  IC50: 2 µM

## O=C(/C=C\Cl)Nc1ccc(CN/C=C2\C(=O)NC(=O)c3ccc(I)cc32)cc1O [Example 337, (2Z)-3-Chloro-N-[2-hydroxy-4-({[(Z)-(6-iodo-1,3-dioxo-2,3-dihydroisoquinolin-4(1H)-ylidene)methyl]amino}methyl)phenyl]acrylamide]
[1]; [12]
  IC50: 1 µM
[2]; three days
  IC50: 1.1 µM
[3]; [13]
  IC50: 0.73 µM
[4]; [14]
  IC50: 3.1 µM
[5]; three days
  IC50: 0.91 µM
[6]; [15]
  IC50: 0.02 µM
[7]; three days
  IC50: 0.67 µM

## O=Cc1ccc(-c2ccc3c(c2)/C(=C/Nc2ccc(CN4CCCCC4)cc2)C(=O)NC3=O)o1 [Example 492, 5-[(4Z)-1,3-Dioxo-4-({[4-(piperidin-1-ylmethyl)phenyl]amino}methylene)-1,2,3,4-tetrahydroisoquinolin-6-yl]-2-furaldehyde]
[1]; [8]
  IC50: > 50 µM
[2]; 3 days
  IC50: 4.1 µM
[3]; [9]
  IC50: 3.3 µM
[4]; [10]
  IC50: > 50 µM
[5]; 3 days
  IC50: 3 µM
[6]; [11]
  IC50: 0.24 µM
[7]; 3 days
  IC50: 1 µM

## O=C1NC(=O)c2ccc(I)cc2/C1=C/Nc1ccc(N2CCC(CO)CC2)cc1 [Example 434, (4Z)-4-[({4-[4-(Hydroxymethyl)piperidin-1-yl]phenyl}amino)methylene]-6-iodoisoquinoline-1,3(2H,4H)-dione]
[1]; [12]
  IC50: > 50 µM
[2]; 3 days
  IC50: 31.5 µM
[3]; [9]
  IC50: 8.1 µM
[4]; [14]
  IC50: 40.6 µM
[5]; 3 days
  IC50: 8.2 µM
[6]; [15]
  IC50: > 50 µM
[7]; 3 days
  IC50: 4.5 µM

## CN(CCN1CCCCC1)c1ccc(N/C=C2\C(=O)NC(=O)c3ccc(Br)cc32)cc1 [Example 256, (4Z)-6-Bromo-4-[({4-[methyl(2-piperidin-1-ylethyl)amino]phenyl}amino)methylene]isoquinoline-1,3(2H,4H)-dione]
[1]; [12]
  IC50: > 50 µM
[2]; three days
  IC50: 5.3 µM
[3]; [13]
  IC50: 7.5 µM
[4]; [14]
  IC50: > 50 µM
[5]; three days
  IC50: 3.6 µM
[6]; [15]
  IC50: 4.3 µM
[7]; three days
  IC50: 3.1 µM

Source: US7713994B2 (Wyeth LLC, priority 2005, dated 2010)
